Reference: US8859574B2 (IRM LLC, priority 2008, dated 2014)

Molecular target: T1, IGF-1R Ba/F3 (Homo sapiens, UniProt P08069)
T1 construct: fused on or other part: TEL- (or BCR-) IGF-1R in Ba/F3: the kinase part holds the site
Assay: Ba/F3 Cell Viability Inhibition Assay (IGF-1R Ba/F3)
Type: cell-based, murine
Settings: Tel-TK transformed Ba/F3 cells, 48 hours, Britelite luminescence
Text: The IC50 of a drug may be determined constructing a dose-response curve and examining the effect of different concentrations of antagonist on reversing agonist activity. IC50 values may be calculated for a given antagonist by determining the concentration needed to inhibit half of the maximum biological response of the agonist. To calculate IC50 values, a series of dose-response data (e.g., drug concentrations x1, x2, . . . , xn and growth inhibition y1, y2, . . . , yn, the values of y are in the range of 0-1) is generated. IC50 values may be determined by a computer-aided system using the formula: y=D+((A−D)/(1+10^(x-log(IC50)B) • where A is the ratio of growth inhibition between lowest drug concentration and control; B is the slope of sigmoidal curvel; and D is the ratio of growth inhibition between highest drug concentration and control.
Ba/F3 is a murine IL-3-dependent pro-B lymphoma cell line. Parental Ba/F3 cells are used to generate a panel of sublines whose proliferation and survival is rendered IL-3-independent by stable transduction with individual tyrosine kinases activated by fusion with the amino-terminal portion of TEL (amino acid 1-375) or BCR. In order to generate Ba/F3 cell lines transformed by Tel-Tyrosine Kinase (TK) fusions, parental Ba/F3 cells are infected with a retrovirus harboring each TEL-fusion kinase and subjected to puromycin selection and IL-3 withdrawal to obtain IL-3-independent, transformed Ba/F3 cells.
Each transformed Ba/F3 cells are cultured in RPMI-1640 media (Gibco Cat #11875093, Carlsbad, Calif.) supplemented with 10% FBS (Hyclone Cat #SV30014.03, Logan, Utah), 4.5 g/L glucose (Sigma #G5400, St. Louis, Mo.), 1.5 g/L sodium bicarbonate (Biowhittaker #17-613E, Walkersville, Md.) and Pen/Strep (Gibco #10378-016, Carlsbad, Calif.). Cells are splitted twice weekly.
The potency of test compounds against various Tel-TK transformed Ba/F3 lines is determined as follows. Exponentially growing BaF3 Tel-TK cells are diluted in fresh medium to 75,000 cells/mL and seeded into 384-well plates (3750 cells/well) at 50 μL/well using a μFill liquid dispenser (BioTek, Winooski, Vt., USA). Duplicate plates are run for each cell line. Test and control compounds are serially diluted with DMSO and arrayed in a polypropylene 384-well plate. […] of compound is transferred into the assay plates using a pin-transfer device, and the plates are incubated at 37° C. (5% CO2) for 48 hours. 25 μL Britelite (Perkin Elmer) is added and luminescence is quantified using Analyst GT (Molecular Devices). Custom curve-fitting software is used to produce a logistic fit of percent cell viability as a function of the logarithm of inhibitor concentration. The IC50 is interpolated as the concentration of compound needed to reduce cell viability to 50% of a DMSO control. Parental Ba/F3 cells that are maintained and cultured in presence of IL-3 (1 ng/ml in final) are diluted in fresh medium containing IL-3 (1 ng/ml in final) to 75,000 cells/mL following the same procedure as described above.

T1 sequence (P08069 999-1274 limits assumed): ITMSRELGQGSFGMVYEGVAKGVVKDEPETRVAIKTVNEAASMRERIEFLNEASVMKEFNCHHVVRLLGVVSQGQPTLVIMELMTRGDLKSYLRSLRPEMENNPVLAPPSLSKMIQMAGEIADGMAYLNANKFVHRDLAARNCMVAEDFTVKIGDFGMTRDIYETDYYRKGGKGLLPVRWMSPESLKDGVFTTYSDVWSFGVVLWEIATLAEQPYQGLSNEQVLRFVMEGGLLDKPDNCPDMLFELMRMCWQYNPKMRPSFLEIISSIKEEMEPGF

| SMILES | IC50 [nM] |
| --- | --- |
| Cc1cc(Nc2nc(Nc3cc(C)c(C4CCN(CCC(F)(F)F)CC4)cc3F)ncc2Cl)n[nH]1 [Compound 24, 5-chloro-N^2-(2-fluoro-5-methyl-4-(1-(3,3,3-trifluoropropyl)piperidin-4-yl)phenyl)-N^4-(5-methyl-1H-pyrazol-3-yl)pyrimidine-2,4-diamine] | 85 |
| Cc1cc(Nc2nc(Nc3cc(C)c(C4CCN(CCC(F)(F)F)CC4)cc3C)ncc2Cl)n[nH]1 [Compound 25, 5-chloro-N2-(2,5-dimethyl-4-(1-(3,3,3-trifluoropropyl)piperidin-4-yl)phenyl)-N4-(5-methyl-1H-pyrazol-3-yl)pyrimidine-2,4-diamine] | 31 |
| Cc1cc(Nc2nc(Nc3cc(C)c(C4CCN(CC(F)(F)F)CC4)cc3F)ncc2Cl)n[nH]1 [Compound 26, 5-chloro-N2-(2-fluoro-5-methyl-4-(1-(2,2,2-trifluoroethyl)piperidin-4-yl)phenyl)-N4-(5-methyl-1H-pyrazol-3-yl)pyrimidine-2,4-diamine] | 142 |
| Cc1cc(Nc2nc(Nc3cc(Cl)c(C4CCN(CCC(F)(F)F)CC4)cc3C)ncc2Cl)n[nH]1 [Compound 27, 5-chloro-N2-(5-chloro-2-methyl-4-(1-(3,3,3-trifluoropropyl)piperidin-4-yl)phenyl)-N4-(5-methyl-1H-pyrazol-3-yl)pyrimidine-2,4-diamine] | 44 |
| Cc1cc(Nc2nc(Nc3cc(C4CCN(CCC(F)(F)F)CC4)c(F)cc3C)ncc2Cl)n[nH]1 [Compound 28, 5-chloro-N2-(4-fluoro-2-methyl-5-(1-(3,3,3-trifluoropropyl)piperidin-4-yl)phenyl)-N4-(5-methyl-1H-pyrazol-3-yl)pyrimidine-2,4-diamine] | 5460 |
| Cc1cc(Nc2nc(Nc3cc(C)c(C4CCN(CC(O)C(F)(F)F)CC4)cc3C)ncc2Cl)n[nH]1 (stereo not drawn) [Compound 29, 3-(4-(4-(5-chloro-4-(5-methyl-1H-pyrazol-3-ylamino)pyrimidin-2-ylamino)-2,5-dimethylphenyl)piperidin-1-yl)-1,1,1-trifluoropropan-2-ol] | 23 |
| Cc1cc(Nc2nc(Nc3cc(C)c(C4CCN(CC(O)C(F)(F)F)CC4)cc3F)ncc2Cl)n[nH]1 (stereo not drawn) [Compound 30, 3-(4-(4-(5-chloro-4-(5-methyl-1H-pyrazol-3-ylamino)pyrimidin-2-ylamino)-5-fluoro-2-methylphenyl)piperidin-1-yl)-1,1,1-trifluoropropan-2-ol] | 71 |
| Cc1cc(Nc2nc(Nc3cc(C4CCN(CC(O)C(F)(F)F)CC4)c(F)cc3C)ncc2Cl)n[nH]1 (stereo not drawn) [Compound 31, 3-(4-(5-(5-chloro-4-(5-methyl-1H-pyrazol-3-ylamino)pyrimidin-2-ylamino)-2-fluoro-4-methylphenyl)piperidin-1-yl)-1,1,1-trifluoropropan-2-ol] | 6470 |
| CNC(=O)CN1CCC(c2cc(F)c(Nc3ncc(Cl)c(Nc4cc(C5CC5)[nH]n4)n3)cc2C)CC1 [Compound 32, 2-(4-(4-(5-chloro-4-(5-cyclopropyl-1H-pyrazol-3-ylamino)pyrimidin-2-ylamino)-5-fluoro-2-methylphenyl)piperidin-1-yl)-N-methylacetamide] | 42 |
| CNC(=O)CN1CCC(c2cc(C)c(Nc3ncc(Cl)c(Nc4cc(C5CC5)[nH]n4)n3)cc2C)CC1 [Compound 33, 2-(4-(4-(5-chloro-4-(5-cyclopropyl-1H-pyrazol-3-ylamino)pyrimidin-2-ylamino)-2,5-dimethylphenyl)piperidin-1-yl)-N-methylacetamide] | 6 |
| Cc1cc(Nc2ncc(Cl)c(Nc3cc(C4CC4)[nH]n3)n2)c(F)cc1C1CCN(CC(N)=O)CC1 [Compound 34, 2-(4-(4-(5-chloro-4-(5-cyclopropyl-1H-pyrazol-3-ylamino)pyrimidin-2-ylamino)-5-fluoro-2-methylphenyl)piperidin-1-yl)acetamide] | 49 |
| Cc1cc(C2CCN(CC(N)=O)CC2)c(C)cc1Nc1ncc(Cl)c(Nc2cc(C3CC3)[nH]n2)n1 [Compound 35, 2-(4-(4-(5-chloro-4-(5-cyclopropyl-1H-pyrazol-3-ylamino)pyrimidin-2-ylamino)-2,5-dimethylphenyl)piperidin-1-yl)acetamide] | 11 |
| Cc1cc(Nc2nc(Nc3cc(C(F)(F)F)c(C4CCN(CC(N)=O)CC4)cc3F)ncc2Cl)n[nH]1 [Compound 36, 2-(4-(4-(5-chloro-4-(5-methyl-1H-pyrazol-3-ylamino)pyrimidin-2-ylamino)-5-fluoro-2-(trifluoromethyl)phenyl)piperidin-1-yl)acetamide] | 19 |
| Cc1cc(Nc2nc(Nc3cc(C)c(C4CCN(CC(N)=O)CC4)cc3C)ncc2Cl)n[nH]1 [Compound 37, 2-(4-(4-(5-chloro-4-(5-methyl-1H-pyrazol-3-ylamino)pyrimidin-2-ylamino)-2,5-dimethylphenyl)piperidin-1-yl)acetamide] | 13 |
| CNC(=O)CN1CCC(c2cc(C)c(Nc3ncc(Cl)c(Nc4cc(C)[nH]n4)n3)cc2C)CC1 [Compound 38, 2-(4-(4-(5-chloro-4-(5-methyl-1H-pyrazol-3-ylamino)pyrimidin-2-ylamino)-2,5-dimethylphenyl)piperidin-1-yl)-N-methylacetamide] | 10 |
| Cc1cc(Nc2nc(Nc3cc(C)c(C4CCN(CC(N)=O)CC4)cc3F)ncc2Cl)n[nH]1 [Compound 39, 2-(4-(4-(5-Chloro-4-(5-methyl-1H-pyrazol-3-ylamino)pyrimidin-2-ylamino)-5-fluoro-2-methylphenyl)piperidin-1-yl)acetamide] | 19 |
| Cc1cc(Nc2nc(Nc3cc(C)c(C4CCCN(CC(N)=O)C4)cc3C)ncc2Cl)n[nH]1 (stereo not drawn) [Compound 41, 2-(3-(4-(5-chloro-4-(5-methyl-1H-pyrazol-3-ylamino)pyrimidin-2-ylamino)-2,5-dimethylphenyl)piperidin-1-yl)acetamide] | 26 |
| CNC(=O)CN1CCC(c2cc(F)c(Nc3ncc(Cl)c(Nc4cc(C)[nH]n4)n3)cc2C)CC1 [Compound 42, 2-(4-(4-(5-chloro-4-(5-methyl-1H-pyrazol-3-ylamino)pyrimidin-2-ylamino)-5-fluoro-2-methylphenyl)piperidin-1-yl)-N-methylacetamide] | 19 |
| CNC(=O)CN1CCCC(c2cc(C)c(Nc3ncc(Cl)c(Nc4cc(C)[nH]n4)n3)cc2C)C1 (stereo not drawn) [Compound 44, 2-(3-(4-(5-chloro-4-(5-methyl-1H-pyrazol-3-ylamino)pyrimidin-2-ylamino)-2,5-dimethylphenyl)piperidin-1-yl)-N-methylacetamide] | 15 |
| CNC(=O)CN1CCC(c2cc(C)c(Nc3ncc(Cl)c(Nc4cc(C)[nH]n4)n3)cc2Cl)CC1 [Compound 45, 2-(4-(2-chloro-4-(5-chloro-4-(5-methyl-1H-pyrazol-3-ylamino)pyrimidin-2-ylamino)-5-methylphenyl)piperidin-1-yl)-N-methylacetamide] | 18 |
| CNC(=O)CN1CCC(c2cc(C)c(Nc3ncc(Cl)c(Nc4cc(C)[nH]n4)n3)cc2OC)CC1 [Compound 46, 2-(4-(4-(5-chloro-4-(5-methyl-1H-pyrazol-3-ylamino)pyrimidin-2-ylamino)-2-methoxy-5-methylphenyl)piperidin-1-yl)-N-methylacetamide] | 13 |
| Cc1cc(Nc2nc(Nc3cc(C(F)(F)F)c(C4CCN(CC(N)=O)CC4)cc3C)ncc2Cl)n[nH]1 [Compound 47, 2-(4-(4-(5-chloro-4-(5-methyl-1H-pyrazol-3-ylamino)pyrimidin-2-ylamino)-5-methyl-2-(trifluoromethyl)phenyl)piperidin-1-yl)acetamide] | 22 |
| Cc1cc(Nc2nc(Nc3cc(C4CCN(C(C)C(N)=O)CC4)c(F)cc3C)ncc2Cl)n[nH]1 (stereo not drawn) [Compound 48, 2-(4-(5-(5-chloro-4-(5-methyl-1H-pyrazol-3-ylamino)pyrimidin-2-ylamino)-2-fluoro-4-methylphenyl)piperidin-1-yl)propanamide] | 3680 |
| Cc1cc(Nc2nc(Nc3cc(C)c(C4CCN(C(C)C(N)=O)CC4)cc3F)ncc2Cl)n[nH]1 (stereo not drawn) [Compound 49, 2-(4-(4-(5-chloro-4-(5-methyl-1H-pyrazol-3-ylamino)pyrimidin-2-ylamino)-5-fluoro-2-methylphenyl)piperidin-1-yl)propanamide] | 15 |
